# Assay results: paper PMC4229098, “Alzheimer's Therapeutics Targeting Amyloid Beta 1–42 Oligomers I: Abeta 42 Oligomer Binding to Specific Neuronal Receptors Is Displaced by Drug Candidates That Improve Cognitive Deficits” (PLoS ONE, 2014)
# Several values for one entry are separate records, joined by “and”; a condition that tells them apart may be missing. Identical values can stand only once. Like-named read-outs stand apart in the source and are kept apart here.
# What was measured:
# [1] = system: mature primary hippocampal and cortical cultures; experiment: Membrane trafficking assay (MTT formazan exocytosis); format: cell-based, rat; conditions: for EC50: preparation dosed alone, read-out: EC50 of Abeta preparation;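 as to all read-outs here: mixed neuron and glia cultures from E18 Sprague-Dawley rat embryos, grown 3 weeks in 384-well plates, labeled vesicles quantified by imaging or spectrophotometry as percent of vehicle-treated wells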
# [2] = system: C57/BL6 mice injected with Abeta oligomers; experiment: Contextual fear conditioning after intrahippocampal Abeta oligomer injection; format: in vivo; conditions: injected into dorsal hippocampi 24 hours prior to testing
# Source text: All procedures were approved by the Institutional Animal Care and Use and Committee at Columbia University and Stanford University and were in compliance with the Office of Laboratory Animal Welfare and the Guide for the Care and Use of Laboratory Animals, Eighth Edition. Behavioral testing of wild-type, 3–4 month old, male, C57/BL6 mice, injected bilaterally into their hippocampus with Abeta oligomers and testing in the fear conditioning task was done according to published methods. Animals were anesthetized with […] Avertin prior to implantation of cannulas into the hippocampus. Testing of transgenic hAPP Swedish/London mice in the Morris water maze or fear conditioning tasks was done according to published methods, [38]. To measure brain concentration of drugs, brains were homogenized in 1 ml PBS per gram of brain tissue using a handheld homogenizer. Brain homogenate was then extracted with three volumes of ice cold methanol on ice for 15 minutes and centrifuged for 15 min. The supernates were analyzed by LC/MS/MS. Samples were compared to a calibration curve prepared in a similar manner by spiking blank control homogenate with standards prepared in DMSO and then extracted as above. At the end of all behavioral testing, animals were euthanized with CO2 followed by cervical dislocation.
# [3] = system: hippocampal/cortical cultures; experiment: Internalization of Abeta oligomers (immunolabeling with/without detergent); format: cell-based, rat; conditions: for bound Abeta at the surface: 1 µM
# Protocol: Supplementary file pone.0111898.s002.tif: Figure S2 Internalization of Abeta oligomers. After treatment with Abeta oligomers (1 µM) for 1 hr (A, B) or 2 hr (C, D), cultures were fixed and immunolabeled for Abeta either in the presence of 0.05% Triton X-100 to permeabilize cells to immunoglobulins and measure all Abeta present (A, C) or in the absence of this detergent (B, D) to detect only Abeta bound at the cell surface. […] (TIF) Click here for additional data file.
# [4] = system: synaptophysin-immunopositive puncta along MAP2-labeled neurites; experiment: Synapse counting assay; format: cell-based, rat; conditions: synthetic Abeta oligomers vs vehicle, 24 hrs
# Protocol: Sprague-Dawley rats, 18 days pregnant, were euthanized by CO2 asphyxiation followed by cervical dislocation, and embryos were removed. Hippocampus and cortical tissue from the embryo brains were digested in 2.5% Trypsin (Life Technologies) to dissociate cells. Isolated cells were plated at a density of 4.6×10^4 cells per cm^2 in 384-well poly-D Lysine coated plates (Greiner) in Neurobasal Media (Life Technologies) supplemented with B27 (Life Technologies), Glutamax (Life Technologies) and antibiotics (penicillin, 50 units/ml and streptomycin 50 µg/ml, Life Technologies). Cultures were maintained at 37°C in 5% CO2 with weekly media change for 3 weeks prior to experimentation. These mixed cultures of hippocampal plus cortical neurons and glia were used for all of the in vitro experiments described.
# Cultures were treated with compounds for 60 minutes prior to addition of 6 µM (maximum from trafficking dose-response curve) of synthetic Abeta 1–42 oligomers and incubated for 24 hrs. Cultures were fixed and immunofluorescently labeled and imaged as for the Abeta binding assay. The ThermoFisher/Cellomics Neuronal Profiling bioapplication was used to count synaptophysin-immunopositive puncta along MAP2-labeled neurites. The number of puncta per unit length of neurites was used to determine effects of treatments. To attain statistical power of 80% and a p value of less than 0.05 (determined using G*Power software), twenty replicate wells were treated per experiment plate and compared to control wells on the same plate and experiments were repeated four times.
# glia = experiment: Abeta binding assay, glia cell bodies; set-up: species or system rat
# Protocol: Measurements of Abeta binding to glia were made with a separate algorithm (ThermoFisher/Cellomics Target Activation bioapplication) which identifies cells lacking MAP2 labeling. Glial cells were analyzed after separating them based on their nuclear morphology as determined by the characteristics of their DAPI labeling, as described in Fig. S1. […]
# The morphology of MAP-2 negative glial nuclei labeled with DAPI was analyzed via automated image processing. […]
# [5] = system: neuronal synaptic puncta in hippocampal/cortical cultures; experiment: Abeta binding assay, neurons (immunofluorescence of neurite puncta); set-up: species or system rat
# Protocol: Alternatively, displacement of prebound oligomers was evaluated by adding oligomers 60 min prior to the addition of compounds, followed by additional 30 minutes incubation. […] Images were acquired on a Cellomics VTi automated microscope with a 20X, 0.75 NA objective and analyzed using ThermoFisher/Cellomics Neuronal Profiling bioapplication set to measure punctate labeling of Abeta and synaptophysin-1 along MAP-2 labeled neurites. […]
# [6] = listed as synthetic Abeta oligomers
substance,measurement,setting,value
"synthetic oligomers (high concentration): synthetic human Abeta 1–42 oligomerized at 100 µM, 4°C, 24 hr; contains monomer [reference compound]",Treatment duration for maximum response,[1]; Abeta preparation dosed alone,24 h
same,EC50,[1]; [6],0.462 ± 0.056 µM
same,EC50,[1],0.46 µM
same,effect of Abeta oligomers on contextual fear memory,[2],cause a deficit in contextual fear conditioning-dependent associative memory
same,bound Abeta at the surface,[3]; 1 hr exposure,96%±8%
same,bound Abeta internalized,"[3]; 2 hr exposure, listed as Abeta oligomers",27%±8% and 27±8%
same,bound Abeta at the surface,[3]; 2 hrs exposure,73%±3%
same,loss of synaptophysin-immunoreactive puncta,[4]; listed as Oligomers,18%±2
same,loss of synaptophysin-immunoreactive puncta,[4]; [6],18%
same,Kd,"glia; non-saturable site, read-out: Kd Site 2, glia cell bodies with condensed/asymmetric nuclear morphology",> 1000 µM
same,Kd,"glia; read-out: Kd Site 1 (high affinity), glia cell bodies with condensed/asymmetric nuclear morphology",0.289 µM
same,bound puncta colocalizing with synaptophysin presynaptic terminals,"[5]; 440 nM total Abeta, 60 minutes",37%±3%
same,Kd,"[5]; 60 min treatment, read-out: Kd Site 1 (high affinity), neurons synaptic puncta",0.518 µM
